# Tests used:
# Italian ryegrass = experiment: Test C preemergence; assay type: in vivo, Lolium multiflorum; conditions: Lolium multiflorum, pre-emergence
# Method in brief: (§1)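 Greenhouse herbicide screen. Pre: seeded loam/sand, sprayed at planting. Post: 1–4 leaf plants (2–18 cm) in peat-based mix. Formulation: solvent mixture + surfactant, non-phytotoxic. Readout: visual % control vs untreated, 13–15 d; dash = not tested.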
# Heteranthera limosa = experiment: Test B flooded paddy test; assay type: in vivo; conditions: Heteranthera limosa, Flood, 250 g ai/ha; 0 to 100 scale where 0 is no effect and 100 is complete control; read-out: Plant response rating, Ducksalad
# Method in brief: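 Visual ratings on a 0 to 100 scale, where 100 means complete control, compared treated plants with controls after 13 to 15 days in a greenhouse. Treatment went into paddy water 3 cm deep over the soil, applied to plants at the 2-leaf stage.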
# large (Lg) crabgrass [1] = experiment: Test A preemergence; assay type: in vivo, Digitaria sanguinalis; conditions: Digitaria sanguinalis, pre-emergence, 240 h
# Method in brief: (§2)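 Compounds in non-phytotoxic solvent with surfactant applied as soil spray preemergence, or postemergence to plants 2-10 cm at one- to two-leaf stage, in loam/sand. After approximately 10 days in greenhouse, injury rated visually versus untreated controls, 0 (no effect) to 100 (complete control).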
# giant foxtail = experiment: Test A preemergence; assay type: in vivo, Setaria faberii; conditions: Setaria faberi, pre-emergence, 240 h
# Method in brief: as §2
# velvetleaf [2] = experiment: Test C preemergence; assay type: in vivo, Abutilon theophrasti; conditions: Abutilon theophrasti, pre-emergence
# Method in brief: as §1
# johnsongrass = experiment: Test C preemergence; assay type: in vivo, Sorghum halepense; conditions: Sorghum halepense, pre-emergence
# Method in brief: as §1
# velvetleaf [3] = experiment: Test A preemergence; assay type: in vivo, Abutilon theophrasti
# Method in brief: as §2
# morningglory = experiment: Test C preemergence; assay type: in vivo, Ipomoea coccinea; conditions: Ipomoea, pre-emergence
# Method in brief: as §1
# oilseed rape = experiment: Test C preemergence; assay type: in vivo, Brassica napus; conditions: Brassica napus, pre-emergence
# Method in brief: as §1
# large (Lg) crabgrass [4] = experiment: Test C postemergence; assay type: in vivo, Digitaria sanguinalis; conditions: Digitaria sanguinalis, post-emergence
# Method in brief: as §1
# galium = experiment: Test C preemergence; assay type: in vivo, Galium aparine; conditions: Galium, pre-emergence
# Method in brief: as §1
# corn = experiment: Test C postemergence; assay type: in vivo, Zea mays; conditions: Zea mays, post-emergence
# Method in brief: as §1
# chickweed = experiment: Test C postemergence; assay type: in vivo, Stellaria media; conditions: Stellaria media, post-emergence
# Method in brief: as §1
# wheat, winter = experiment: Test C postemergence; assay type: in vivo, Triticum aestivum; conditions: Triticum aestivum, post-emergence
# Method in brief: as §1
# pigweed = experiment: Test A postemergence; assay type: in vivo, Amaranthus retroflexus; conditions: Amaranthus retroflexus, post-emergence
# Method in brief: as §2
smiles,measurement,setting,value
"N#Cc1cccc(Oc2ncc(Cl)cn2)c1-n1cc(C(F)(F)F)cn1 [Compound 58, 3-[(5-chloro-2-pyrimidinyl)oxy]-2-[4-(trifluoromethyl)-1H-pyrazol-1-yl]benzonitrile]",pest or weed control at 62 g/ha,"Italian ryegrass; 62 g ai/ha, preemergence, scale 0 (no effect) to 100 (complete control), read-out: Ryegrass, Italian plant response rating",90%
same,pest or weed control at 125 g/ha,"Italian ryegrass; 125 g ai/ha, preemergence, scale 0 (no effect) to 100 (complete control), read-out: Ryegrass, Italian plant response rating",90%
same,pest or weed control at 250 g/ha,"Italian ryegrass; 250 g ai/ha, preemergence, scale 0 (no effect) to 100 (complete control), read-out: Ryegrass, Italian plant response rating",90%
same,pest or weed control at 31 g/ha,"Italian ryegrass; Preemergence, 31 g ai/ha, scale 0 to 100, 0 no effect, 100 complete control, read-out: Plant response rating, Ryegrass, Italian",90%
same,pest or weed control at 250 g/ha,Heteranthera limosa,90%
same,pest or weed control at 125 g/ha,"large (Lg) crabgrass [1]; 125 g ai/ha, 0 to 100 scale where 0 is no effect and 100 is complete control, read-out: Plant response rating, Crabgrass, Large",100%
same,pest or weed control at 500 g/ha,"large (Lg) crabgrass [1]; 500 g ai/ha, 0 to 100 scale, 0 no effect, 100 complete control, approx. 10 days, read-out: Crabgrass, Large plant response rating",100%
same,pest or weed control at 125 g/ha,"giant foxtail; 125 g ai/ha, 0 to 100 scale where 0 is no effect and 100 is complete control, read-out: Plant response rating, Foxtail, Giant",100%
same,pest or weed control at 500 g/ha,"giant foxtail; 500 g ai/ha, 0 to 100 scale, 0 no effect, 100 complete control, approx. 10 days, read-out: Foxtail, Giant plant response rating",100%
same,pest or weed control at 62 g/ha,"velvetleaf [2]; 62 g ai/ha, preemergence, scale 0 (no effect) to 100 (complete control), read-out: Velvetleaf plant response rating",100%
same,pest or weed control at 125 g/ha,"velvetleaf [2]; 125 g ai/ha, preemergence, scale 0 (no effect) to 100 (complete control), read-out: Velvetleaf plant response rating",100%
same,pest or weed control at 250 g/ha,"velvetleaf [2]; 250 g ai/ha, preemergence, scale 0 (no effect) to 100 (complete control), read-out: Velvetleaf plant response rating",100%
same,pest or weed control at 31 g/ha,"velvetleaf [2]; Preemergence, 31 g ai/ha, scale 0 to 100, 0 no effect, 100 complete control, read-out: Plant response rating, Velvetleaf",100%
same,pest or weed control at 62 g/ha,"johnsongrass; 62 g ai/ha, preemergence, scale 0 (no effect) to 100 (complete control), read-out: Johnsongrass plant response rating",100%
same,pest or weed control at 125 g/ha,"johnsongrass; 125 g ai/ha, preemergence, scale 0 (no effect) to 100 (complete control), read-out: Johnsongrass plant response rating",100%
same,pest or weed control at 250 g/ha,"johnsongrass; 250 g ai/ha, preemergence, scale 0 (no effect) to 100 (complete control), read-out: Johnsongrass plant response rating",100%
same,pest or weed control at 31 g/ha,"johnsongrass; Preemergence, 31 g ai/ha, scale 0 to 100, 0 no effect, 100 complete control, read-out: Plant response rating, Johnsongrass",85%
same,"Plant response rating, Velvetleaf","velvetleaf [3]; 125 g ai/ha, 0 to 100 scale where 0 is no effect and 100 is complete control",90
same,pest or weed control at 500 g/ha,"velvetleaf [3]; Abutilon theophrasti, pre-emergence, 240 h, 500 g ai/ha, 0 to 100 scale, 0 no effect, 100 complete control, approx. 10 days, read-out: Velvetleaf plant response rating",100%
same,pest or weed control at 62 g/ha,"morningglory; 62 g ai/ha, preemergence, scale 0 (no effect) to 100 (complete control), read-out: Morningglory plant response rating",100%
same,pest or weed control at 125 g/ha,"morningglory; 125 g ai/ha, preemergence, scale 0 (no effect) to 100 (complete control), read-out: Morningglory plant response rating",100%
same,pest or weed control at 250 g/ha,"morningglory; 250 g ai/ha, preemergence, scale 0 (no effect) to 100 (complete control), read-out: Morningglory plant response rating",100%
same,pest or weed control at 31 g/ha,"morningglory; Preemergence, 31 g ai/ha, scale 0 to 100, 0 no effect, 100 complete control, read-out: Plant response rating, Morningglory",100%
same,plant injury at 62 g/ha,"oilseed rape; 62 g ai/ha, preemergence, scale 0 (no effect) to 100 (complete control), read-out: Oilseed Rape plant response rating",100%
same,plant injury at 125 g/ha,"oilseed rape; 125 g ai/ha, preemergence, scale 0 (no effect) to 100 (complete control), read-out: Oilseed Rape plant response rating",100%
same,plant injury at 250 g/ha,"oilseed rape; 250 g ai/ha, preemergence, scale 0 (no effect) to 100 (complete control), read-out: Oilseed Rape plant response rating",100%
same,plant injury at 31 g/ha,"oilseed rape; Preemergence, 31 g ai/ha, scale 0 to 100, 0 no effect, 100 complete control, read-out: Plant response rating, Oilseed Rape",100%
same,pest or weed control at 125 g/ha,"large (Lg) crabgrass [4]; 125 g ai/ha, postemergence, read-out: Plant response rating (0 to 100), Crabgrass, Large",50%
same,pest or weed control at 250 g/ha,"large (Lg) crabgrass [4]; 250 g ai/ha, postemergence, read-out: Plant response rating (0 to 100), Crabgrass, Large",85%
same,pest or weed control at 31 g/ha,"large (Lg) crabgrass [4]; Postemergence, 31 g ai/ha, scale 0 to 100 (0 no effect, 100 complete control), 13 to 15 days, read-out: Plant response rating, Crabgrass, Large",5%
same,pest or weed control at 62 g/ha,"large (Lg) crabgrass [4]; Postemergence, 62 g ai/ha, scale 0 to 100 (0 no effect, 100 complete control), read-out: Plant response rating, Crabgrass, Large",20%
same,pest or weed control at 62 g/ha,"galium; 62 g ai/ha, preemergence, scale 0 (no effect) to 100 (complete control), read-out: Galium plant response rating",100%
same,pest or weed control at 125 g/ha,"galium; 125 g ai/ha, preemergence, scale 0 (no effect) to 100 (complete control), read-out: Galium plant response rating",100%
same,pest or weed control at 250 g/ha,"galium; 250 g ai/ha, preemergence, scale 0 (no effect) to 100 (complete control), read-out: Galium plant response rating",100%
same,pest or weed control at 31 g/ha,"galium; Preemergence, 31 g ai/ha, scale 0 to 100, 0 no effect, 100 complete control, read-out: Plant response rating, Galium",100%
same,plant injury at 125 g/ha,"corn; 125 g ai/ha, postemergence, read-out: Plant response rating (0 to 100), Corn",25%
same,plant injury at 250 g/ha,"corn; 250 g ai/ha, postemergence, read-out: Plant response rating (0 to 100), Corn",45%
same,"Corn plant response rating (crop injury, 0 = no effect, 100 = complete kill) at 31 g/ha","corn; Postemergence, 31 g ai/ha, scale 0 to 100 (0 no effect, 100 complete control), 13 to 15 days",10%
same,"Corn plant response rating (crop injury, 0 = no effect, 100 = complete kill) at 62 g/ha","corn; Postemergence, 62 g ai/ha, scale 0 to 100 (0 no effect, 100 complete control)",15%
same,pest or weed control at 125 g/ha,"chickweed; 125 g ai/ha, postemergence, read-out: Plant response rating (0 to 100), Chickweed",100%
same,pest or weed control at 250 g/ha,"chickweed; 250 g ai/ha, postemergence, read-out: Plant response rating (0 to 100), Chickweed",100%
same,pest or weed control at 31 g/ha,"chickweed; Postemergence, 31 g ai/ha, scale 0 to 100 (0 no effect, 100 complete control), 13 to 15 days, read-out: Plant response rating, Chickweed",95%
same,pest or weed control at 62 g/ha,"chickweed; Postemergence, 62 g ai/ha, scale 0 to 100 (0 no effect, 100 complete control), read-out: Plant response rating, Chickweed",95%
same,plant injury at 125 g/ha,"wheat, winter; 125 g ai/ha, postemergence, read-out: Plant response rating (0 to 100), Wheat",25%
same,plant injury at 250 g/ha,"wheat, winter; 250 g ai/ha, postemergence, read-out: Plant response rating (0 to 100), Wheat",30%
same,plant injury at 31 g/ha,"wheat, winter; Postemergence, 31 g ai/ha, scale 0 to 100 (0 no effect, 100 complete control), 13 to 15 days, read-out: Plant response rating, Wheat",10%
same,plant injury at 62 g/ha,"wheat, winter; Postemergence, 62 g ai/ha, scale 0 to 100 (0 no effect, 100 complete control), read-out: Plant response rating, Wheat",15%
same,pest or weed control at 125 g/ha,"pigweed; 125 g ai/ha, 0 to 100 scale where 0 is no effect and 100 is complete control, read-out: Plant response rating, Pigweed",100%
same,pest or weed control at 500 g/ha,"pigweed; 240 h, 500 g ai/ha, 0 to 100 scale, 0 no effect, 100 complete control, read-out: Plant response rating Pigweed",100%
